In US20250268975A1 (priority 2024, published 2025):
*1 amine or outer side, *2 acyl side, *3 side chain or, on linkers, in order; H or OH if unused. Where a SMILES comes first, the peptide text is derived from it. [ ]: non-standard residue; d: D form. X1 = CCCCCCCCCCCCCCN(CC(=O)[*:2])[*:1]; Nrpe = C[C@@H](NCC(=O)O)c1ccccc1; Nlys = NCCCCNCC(=O)O

Tested on: transgenic Zaire Ebola virus (EBOV) of the Mayinga strain, expressing green fluorescent protein (EBOV-GFP)
Format: cell-based

Question: `CCCCCCCCCCCCCCNCC(=O)N(CCCCN)CC(=O)N(CC(=O)N(CC(=O)N(CCCCN)CC(N)=O)[C@H](C)c1ccccc1)[C@H](C)c1ccccc1` [MXB-24,816, H-Ntetradec-Nlys-Nspe-Nspe-Nlys-NH2] (H-[X1][Nlys][Nrpe][Nrpe][Nlys]-NH2) was tested. Which “antiviral activity against Ebola virus (inhibition of viral titers and GFP-positive Ebola virus replication)” value did it give?
Answer: showed antiviral activity
